PubChem BioAssay (NCI)
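Grown in 96-well plates, cells were treated for 48 hours with each compound at five concentrations. Insufficient inhibition: endpoint recorded as highest concentration tested. TGI is the concentration that stops growth completely.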

Assays:
Test in all cases: DTP human tumour cell line panel, 48 h
A498 renal = tested on: A498 renal
A549 NSCLC = tested on: A549 NSCLC
K-562 leukemia = tested on: K-562 leukemia
M14 melanoma = tested on: M14 melanoma
MALME-3M melanoma = tested on: MALME-3M melanoma
NCI-H460 lung = tested on: NCI-H460 lung
NCI-H522 lung = tested on: NCI-H522 lung
OVCAR-8 ovarian = tested on: OVCAR-8 ovarian
RXF 393 renal = tested on: RXF 393 renal
SK-MEL-2 melanoma = tested on: SK-MEL-2 melanoma
SW-620 colon = tested on: SW-620 colon
TK-10 renal = tested on: TK-10 renal
UACC-62 melanoma = tested on: UACC-62 melanoma
EKVX NSCLC = tested on: EKVX NSCLC
HCC-2998 colon = tested on: HCC-2998 colon
SNB-19 CNS = tested on: SNB-19 CNS

Row | Structure (SMILES) | TGI (A498 renal) [µM] | TGI (A549 NSCLC) [µM] | TGI (K-562 leukemia) [µM] | TGI (M14 melanoma) [µM] | TGI (MALME-3M melanoma) [µM] | TGI (NCI-H460 lung) [µM] | TGI (NCI-H522 lung) [µM] | TGI (OVCAR-8 ovarian) [µM] | TGI (RXF 393 renal) [µM] | TGI (SK-MEL-2 melanoma) [µM] | TGI (SW-620 colon) [µM] | TGI (TK-10 renal) [µM] | TGI (UACC-62 melanoma) [µM] | TGI (EKVX NSCLC) [µM] | TGI (HCC-2998 colon) [µM] | TGI (SNB-19 CNS) [µM]
1 | Cc1nc2ccccc2c(=O)n1NC(=S)Nc1cccc(Cl)c1 | > 100 | > 100 | > 100 | > 100 | > 100 | > 100 | > 100 | > 100 | > 100 | > 100 | > 100 | > 100 | > 100 | – | – | –
2 | Cc1nc(-c2nc(C)c(C(=O)NN(C)C)s2)sc1C(=O)NN(C)C | > 100 | – | > 100 | > 100 | > 100 | > 100 | > 100 | > 100 | – | > 100 | – | > 100 | > 100 | > 100 | > 100 | > 100
3 | CC1(Br)C(=O)NC(=O)N(C2CC(N=[N+]=[N-])C(CO)O2)C1N=[N+]=[N-] (configuration not stated) | > 100 | > 100 | > 100 | > 100 | > 100 | > 100 | 66.8 | > 100 | > 100 | > 100 | > 100 | > 100 | > 100 | > 100 | > 100 | > 100
4 | COc1ccc2nc(NC(=O)C(=O)C(C(=O)c3ccccc3-c3ccccc3)C3OC(=O)c4ccccc43)sc2c1 (configuration not stated) | 40.8 | 76.4 | > 100 | 41.5 | 27.6 | 50.2 | 23.8 | 59.3 | 23.8 | 28 | 50.1 | 48.9 | 34.3 | 45.9 | 29.1 | –
5 | Cc1ccc2c(c1)SC(c1cc3c(cc1Br)OCO3)S2 (configuration not stated) | > 31.6 | > 31.6 | > 31.6 | > 31.6 | > 31.6 | > 31.6 | > 31.6 | > 31.6 | > 31.6 | > 31.6 | > 100 | > 31.6 | > 31.6 | > 31.6 | > 31.6 | > 100
6 | O=C(Nc1nc2ccccc2n1Cc1ccc(Cl)cc1)NC12CC3CC(CC(C3)C1)C2 | – | 66.5 | > 100 | > 100 | 62 | > 100 | 42.7 | – | 64.5 | 87.7 | > 100 | > 100 | 38 | > 100 | > 100 | 53.7
